Source: patent US6589563B2 (Nanodelivery, Inc., priority 1999, dated 2003)

Test system: secretory IgA and serum IgG antibodies
Test: Oral immunization with OVA nanoparticles, ELISA of secretory IgA and serum IgG antibodies
Format: in vivo, male Sprague-Dawley adult rats
Conditions: immunizations at week 0 and week 4
Protocol: Once the particles were generated and washed they were introduced orally into experimental animals (male Sprague-Dawley adult rats (200-250 g wt., 12-15 weeks old, Harlow). Ten animals were used for each group. About 1 mg of dry weight of nanoparticles in the reaction mixture has been administered orally into the stomach of each animal. The nonloaded (#8) nanoparticles were also administered to control animals, in addition to a soluble antigen (OVA)(#9). ELISA assay of secretory IgA and serum IgG antibodies was carried out as described [Challacombe, et al., Enhanced secretory IgA and systemic IgG antibody response after oral immunization with biodegradable microcapsules containing antigen. Immunology 76: 164-168 (1992)]. Primary and secondary immunization protocol was used, consisting of two immunizations at week 0 and at week 4. […] In another set of experiments nonloaded nanoparticles (no OVA) were separately tested in simulated gastric (pH 2) and intestinal (pH 8.3) solutions for their stability. […] Similar results in terms of antibodies and release characteristics were obtained for tetanus toxoid antigen.

Substance: ovalbumin (egg albumin) [Sol OVA, soluble ovalbumin antigen from Sigma]
- Response to oral delivery of nanoparticulate OVA antigen, Mean (Day 28, rats): 75.0
- Response to oral delivery of nanoparticulate OVA antigen, Mean (Day 56, rats): 550.0
